Paper PMC11396129, “Oxindole–benzothiazole hybrids as CDK2 inhibitors and anticancer agents: design, synthesis and biological evaluation” (BMC Chemistry, 2024)

Experiments:
[1] = tested on: DU145 prostate cancer cell line; assay: Cell cycle analysis (PI flow cytometry); assay type: cell-based, human; conditions: DU145, 9o at its GI50 concentration, 48h
Experimental: Concurrently, there is a decline in the % of cells in the G2 phase from 22.20% in control cells to 20.94% in 9o treated cells.
(§1) DU145 cancer cell line derived from prostate cancer was treated with the oxindole–benzothiazole conjugate 9o at its GI50. This was followed by treatment of cells according to the reported procedure and the percentage of cells in each stage of the cell cycle was identified and the percentage of cells in the apoptotic and necrotic stages were detected (for further details see additional file 1: analysis of cell cycle distribution; apoptosis assay).
(§2) 6. Analysis of cell cycle distribution
(§3) DU-145: Prostate cancer was obtained from Nawah Scientific Inc., (Mokatam, Cairo, Egypt).
Cells were maintained in DMEM media supplemented with […] of streptomycin, 100 units/mL of penicillin and 10% of heat-inactivated fetal bovine serum in humidified, 5% (v/v) CO2 atmosphere at 37 °C. After treatment with 9o for 48h, cells (10^5 cells) are collected by trypsinization and washed twice with ice-cold PBS (pH 7.4). Cells are re-suspended in two milliliters of 60% ice-cold ethanol and incubated at 4 °C for 1h for fixation. Fixed cells are washed twice again with PBS (pH 7.4) and re-suspended in 1 mL of PBS containing 50 μg/mL RNAase A and 10 μg/mL propidium iodide (PI). After 20 min of incubation in dark at 37 °C, cells are analyzed for DNA contents using flow cytometry analysis using FL2 (λex/em 535/617 nm) signal detector (ACEA Novocyte™ flowcytometer, ACEA Biosciences Inc., San Diego, CA, USA). For each sample, 12,000 events are acquired. […]

[2] = tested on: DU145 prostate cancer cell line; assay: Apoptosis assay (Annexin V-FITC/PI flow cytometry); assay type: cell-based, human; conditions: DU145, 9o at its GI50 concentration, 48h
Experimental: as §1, §2, §3
Cells were maintained in DMEM media supplemented with […] of streptomycin, 100 units/mL of penicillin and 10% of heat-inactivated fetal bovine serum in humidified, 5% (v/v) […]
CO2 atmosphere at 37 °C. […]
Apoptosis and necrosis cell populations are determined using Annexin V-FITC apoptosis detection kit (Abcam Inc., Cambridge Science Park, Cambridge, UK) coupled with 2 fluorescent channels flowcytometry. After treatment with test compounds for 48h, cells (10^5 cells) are collected by trypsinization and washed twice with ice-cold PBS (pH 7.4). Then, cells are incubated in dark with 0.5 ml of Annexin V-FITC/PI solution for 30 min in dark at room temperature according to manufacturer protocol. After staining, cells are injected via ACEA Novocyte™ flowcytometer (ACEA Biosciences Inc., San Diego, CA, USA) and analysed for FITC and PI fluorescent signals using FL1 and FL2 signal detector, respectively […]
events are acquired and positive FITC and/or PI cells are quantified by quadrant analysis and […]

CDK1 = CDK1 (Homo sapiens, UniProt P06493); assay: Kinase inhibitory activity on CDK1; assay type: biochemical; conditions: mean of two independent experiments ± SD
CDK5 = CDK5 (Homo sapiens, UniProt Q00535); assay: Kinase inhibitory activity on CDK5; assay type: biochemical; conditions: mean of two independent experiments ± SD
Chain of CDK5 (Q00535 whole entry, species assumed): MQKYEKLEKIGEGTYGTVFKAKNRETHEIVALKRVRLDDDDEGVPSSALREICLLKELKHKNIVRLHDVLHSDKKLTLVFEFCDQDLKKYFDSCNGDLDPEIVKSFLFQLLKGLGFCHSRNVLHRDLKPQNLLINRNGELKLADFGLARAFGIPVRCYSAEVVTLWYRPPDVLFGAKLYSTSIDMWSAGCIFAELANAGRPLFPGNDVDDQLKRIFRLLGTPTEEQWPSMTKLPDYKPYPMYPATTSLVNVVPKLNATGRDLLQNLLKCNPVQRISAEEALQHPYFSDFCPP
Chain of CDK5 (Q15078 99-307 partner limits assumed, species assumed): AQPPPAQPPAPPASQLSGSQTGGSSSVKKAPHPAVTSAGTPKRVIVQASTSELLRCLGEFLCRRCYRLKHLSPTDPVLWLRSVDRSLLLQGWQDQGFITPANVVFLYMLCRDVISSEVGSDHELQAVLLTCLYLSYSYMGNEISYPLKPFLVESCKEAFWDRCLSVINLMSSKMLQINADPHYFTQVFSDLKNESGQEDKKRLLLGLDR

Chain of CDK1 (P06493 whole entry, species assumed): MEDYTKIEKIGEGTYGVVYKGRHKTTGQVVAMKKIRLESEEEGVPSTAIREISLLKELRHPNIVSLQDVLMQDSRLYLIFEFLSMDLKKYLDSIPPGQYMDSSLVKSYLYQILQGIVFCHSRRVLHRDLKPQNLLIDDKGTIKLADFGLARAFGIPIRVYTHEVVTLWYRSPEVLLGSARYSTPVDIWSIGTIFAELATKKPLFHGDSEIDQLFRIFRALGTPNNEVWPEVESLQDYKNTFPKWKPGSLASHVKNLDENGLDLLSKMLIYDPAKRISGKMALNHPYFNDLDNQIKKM
Chain of CDK1 (P14635 whole entry partner, species assumed): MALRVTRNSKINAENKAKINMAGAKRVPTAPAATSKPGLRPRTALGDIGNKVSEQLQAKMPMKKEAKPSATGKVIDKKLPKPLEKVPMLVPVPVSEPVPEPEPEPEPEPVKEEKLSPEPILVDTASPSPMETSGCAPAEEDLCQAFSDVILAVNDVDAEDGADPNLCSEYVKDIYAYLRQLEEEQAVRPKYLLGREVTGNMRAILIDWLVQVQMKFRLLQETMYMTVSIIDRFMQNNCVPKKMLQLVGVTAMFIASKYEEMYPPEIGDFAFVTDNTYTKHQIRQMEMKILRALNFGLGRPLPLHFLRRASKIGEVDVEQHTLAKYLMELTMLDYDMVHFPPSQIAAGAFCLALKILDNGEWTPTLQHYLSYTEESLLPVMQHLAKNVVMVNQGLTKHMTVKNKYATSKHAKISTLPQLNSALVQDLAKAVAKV

COc1ccc2c(c1)C(=NNC(=O)COc1cc(-c3nc4ccccc4s3)ccc1OC)C(=O)N2 [Compound 9o, 2-(5-(Benzo[d]thiazol-2-yl)-2-methoxyphenoxy)-N′-(5-methoxy-2-oxoindolin-3-ylidene)acetohydrazide]
%G0/G1 [1]: 61.40%
%G2/M [1]: 20.94%
%S [1]: 17.66%
%Sub-G1 [1]: 0.41%
% early apoptotic cells (Q2–4) [2]: 0.28%
% of cells in the late apoptotic stage (Q2–2) [2]: 5.02%
% of cells in the necrotic stage (Q2–1) [2]: 2.63%
% viable cells (Q2–3) [2]: 92.07%
IC50 (CDK1): 1.19 ± 0.1 µM
IC50 (CDK5): 0.34 ± 0.02 µM
